Measured values: article PMC12473906, “Comparing the Altis RepliGut Organoid System to MDCK Monolayers in Predicting the Oral Absorption of Lenalidomide” (Pharmaceutics, 2025)
Where two headings read alike, the source gives them in different places.

Key:
[1] = tested on: human intestinal organoid-derived monolayer (RepliGut)
[2] = ref PubChem; cited from earlier work
[3] = cited from earlier work; for Main Route of Absorption: as listed in Table 2, no reference given
[4] = RepliGut human jejunal organoid-derived monolayer permeability assay; settings: human, pH 7.4
[5] = tested on: human intestinal organoid-derived monolayer (RepliGut); assay: as above; settings: organoid vs gMDCK
in vitro [6] = settings: dog, MDCK, pH 7.4, gMDCK Papp
in vitro [7] = settings: human, pH 7.4
[8] = gMDCK (P-gp knockout MDCK) monolayer permeability assay; settings: dog, MDCK, pH 7.4, gMDCK Papp, reference compounds; apical to basolateral; n=3 biological replicates
gMDCK monolayers = settings: MDCK

Molecule	Efflux Substrate [1]	Papp at 3 h [4] [×10⁻⁶ cm/s]	apical to basolateral apparent permeability in intestinal organoids compared with gMDCK monolayers [5]	basolateral to apical permeability in intestinal organoids compared with gMDCK cells [5]	basolateral to apical permeability in intestinal organoids compared with gMDCK cells [1]	LogP [2]	Main Route of Absorption [3]	Human Fa (fraction absorbed) [3]	further results
CC(C)CN(C[C@@H](O)[C@H](Cc1ccccc1)NC(=O)O[C@H]1CCOC1)S(=O)(=O)c1ccc(N)cc1 [Amprenavir]	Yes	–	–	–	–	2.2	Transcellular	–	–
CC(CCc1ccccc1)NCC(O)c1ccc(O)c(C(N)=O)c1 (stereo not drawn) [Labetalol]	–	0.85	significantly lower	significantly higher	–	1.8	Both	95% [9]	–
Lucifer yellow	–	–	–	–	similar	–	–	–	effect of shaking gMDCK cells during the permeability assay on permeability (gMDCK monolayers): did not significantly change; apical to basolateral apparent permeability in intestinal organoids compared with gMDCK monolayers [1]: higher

The next lines start with results.

Efflux Substrate [1]	Papp at 3 h [4] [×10⁻⁶ cm/s]	apical to basolateral apparent permeability in intestinal organoids compared with gMDCK monolayers [5]	basolateral to apical permeability in intestinal organoids compared with gMDCK cells [5]	basolateral to apical permeability in intestinal organoids compared with gMDCK cells [1]	Molecule	LogP [2]	Main Route of Absorption [3]	Human Fa (fraction absorbed) [3]	further results
No	–	–	–	similar	COCCc1ccc(OCC(O)CNC(C)C)cc1 (stereo not drawn) [Metoprolol]	–	–	–	Papp at 3 h (in vitro [6]): 13 ×10⁻⁶ cm/s; Papp at 3 h (in vitro [7]): 10.1 ×10⁻⁶ cm/s
Yes	0.17	higher	significantly higher	–	CC(C)(C)NCC(O)COc1cccc2c1CC(O)C(O)C2 (stereo not drawn) [Nadolol]	–	Paracellular	57% [9]	efflux ratio at 3 h (in vitro [7]): > 4; Papp at 3 h [8]: 0.09 ×10⁻⁶ cm/s
